# Assay results: paper PMC10178848, “Modulating fast skeletal muscle contraction protects skeletal muscle in animal models of Duchenne muscular dystrophy” (The Journal of Clinical Investigation, 2023)
# Where two headings read alike, the source gives them in different places.
# System: GRMD plasma proteins
# Assay type: in vivo, dog
# [1] = Post-Treatment to GRMD baseline, Increased in GRMD
compound,measurement,setting,value
O=c1ccc(-c2cnc(OCC(F)(F)F)nc2)nn1Cc1cncc(F)c1 [EDG-5506],Change from GRMD Baseline (fraction): Tyrosine-protein phosphatase non-receptor type 11 (PTPN11),[1],-0.1671 fraction
same,Change from GRMD Baseline (fraction): UMP-CMP kinase (CMPK1),[1],0.3595 fraction
same,Change from GRMD Baseline (fraction): Ubiquitin carboxyl-terminal hydrolase 25 (USP25),[1],0.0097 fraction
same,Change from GRMD Baseline (fraction): Ubiquitin carboxyl-terminal hydrolase isozyme L1 (UCHL1),[1],0.0043 fraction
same,Change from GRMD Baseline (fraction): Ubiquitin-fold modifier 1 (UFM1),[1],-0.1676 fraction
same,Change from GRMD Baseline (fraction): Vascular cell adhesion protein 1 (VCAM1),[1],-0.0398 fraction
same,Change from GRMD Baseline (fraction): Vitamin K-dependent protein C (PROC),[1],0.0209 fraction
same,Change from GRMD Baseline (fraction): Vitronectin (VTN),[1],-0.1254 fraction
same,Change from GRMD Baseline (fraction): cAMP-dependent protein kinase catalytic subunit alpha (PRKACA),[1],-0.3909 fraction
same,Change from GRMD Baseline (fraction): dCTP pyrophosphatase 1 (DCTPP1),[1],-0.286 fraction
same,Chitotriosidase-1 (CHIT1): Change from GRMD Baseline (fraction),[1],0.0322 fraction
same,Chorionic somatomammotropin hormone (CSH1 CSH2): Change from GRMD Baseline (fraction),[1],-0.0339 fraction
same,Chromobox protein homolog 5 (CBX5): Change from GRMD Baseline (fraction),[1],0.2228 fraction
same,Coagulation Factor X (F10): Change from GRMD Baseline (fraction),[1],0.1794 fraction
same,Coagulation factor IX (F9): Change from GRMD Baseline (fraction),[1],0.0608 fraction
same,"Complement component 1 Q subcomponent-binding protein, mitochondrial (C1QBP): Change from GRMD Baseline (fraction)",[1],0.0901 fraction
same,Connective tissue growth factor (CTGF): Change from GRMD Baseline (fraction),[1],-0.0093 fraction
same,Cyclin-dependent kinase 1:G2/mitotic-specific cyclin-B1 complex (CDC2 CCNB1): Change from GRMD Baseline (fraction),[1],0.0208 fraction
same,Cyclin-dependent kinase 5:Cyclin-dependent kinase 5 activator 1 complex (CDK5 CDK5R1): Change from GRMD Baseline (fraction),[1],0.0687 fraction
same,Cytokine receptor-like factor 1:Cardiotrophin-like cytokine factor 1 Complex (CRLF1 CLCF1): Change from GRMD Baseline (fraction),[1],0.0138 fraction
same,"Dual 3',5'-cyclic-AMP and -GMP phosphodiesterase 11A (PDE11A): Change from GRMD Baseline (fraction)",[1],0.0321 fraction
same,"Ectodysplasin-A, secreted form (EDA): Change from GRMD Baseline (fraction)",[1],0.0092 fraction
same,Endothelial cell-selective adhesion molecule (ESAM): Change from GRMD Baseline (fraction),[1],-0.0069 fraction
same,Endothelial monocyte-activating polypeptide 2 (AIMP1): Change from GRMD Baseline (fraction),[1],-0.0021 fraction
same,Extracellular superoxide dismutase [Cu-Zn] (SOD3): Change from GRMD Baseline (fraction),[1],0.0677 fraction
same,Ficolin-2 (FCN2): Change from GRMD Baseline (fraction),[1],0.0082 fraction
same,Fms-related tyrosine kinase 3 ligand (FLT3LG): Change from GRMD Baseline (fraction),[1],0.0399 fraction
same,Galactoside 3(4)-L-fucosyltransferase (FUT3): Change from GRMD Baseline (fraction),[1],0.1128 fraction
same,Galectin-10 (CLC): Change from GRMD Baseline (fraction),[1],0.0216 fraction
same,Glial fibrillary acidic protein (GFAP): Change from GRMD Baseline (fraction),[1],-0.0254 fraction
same,Glycylpeptide N-tetradecanoyltransferase 1 (NMT1): Change from GRMD Baseline (fraction),[1],0.0839 fraction
same,Group 10 secretory phospholipase A2 (PLA2G10): Change from GRMD Baseline (fraction),[1],0.0518 fraction
same,Growth hormone receptor (GHR): Change from GRMD Baseline (fraction),[1],0.0479 fraction
same,Growth-regulated alpha protein (CXCL1): Change from GRMD Baseline (fraction),[1],-0.0445 fraction
same,Growth/differentiation factor 15 (GDF15): Change from GRMD Baseline (fraction),[1],-0.0019 fraction
same,Hepatocyte growth factor (HGF): Change from GRMD Baseline (fraction),[1],0.0007 fraction
same,Hepcidin (HAMP): Change from GRMD Baseline (fraction),[1],-0.0103 fraction
same,Immunoglobulin M (IGHM IGJ IGK@ IGL@): Change from GRMD Baseline (fraction),[1],0.0023 fraction
same,Importin subunit alpha-1 (KPNA2): Change from GRMD Baseline (fraction),[1],-0.1696 fraction
same,Induced myeloid leukemia cell differentiation protein Mcl-1 (MCL1): Change from GRMD Baseline (fraction),[1],-0.1236 fraction
same,Inorganic pyrophosphatase (PPA1): Change from GRMD Baseline (fraction),[1],-0.0163 fraction
same,Insulin-like growth factor-binding protein 7 (IGFBP7): Change from GRMD Baseline (fraction),[1],0.064 fraction
same,Integrin alpha-IIb: beta-3 complex (ITGA2B ITGB3): Change from GRMD Baseline (fraction),[1],0.0053 fraction
same,Interleukin-4 (IL4): Change from GRMD Baseline (fraction),[1],-0.0251 fraction
same,Interleukin-6 receptor subunit beta (IL6ST): Change from GRMD Baseline (fraction),[1],0.06 fraction
same,Interleukin-8 (CXCL8): Change from GRMD Baseline (fraction),[1],-0.0291 fraction
same,Interleukin-10 receptor subunit beta (IL10RB): Change from GRMD Baseline (fraction),[1],-0.0324 fraction
same,Interleukin-17 receptor C (IL17RC): Change from GRMD Baseline (fraction),[1],-0.0159 fraction
same,Interleukin-18 receptor accessory protein (IL18RAP): Change from GRMD Baseline (fraction),[1],-0.0292 fraction
same,Interleukin-27 (IL27 EBI3): Change from GRMD Baseline (fraction),[1],-0.0149 fraction
same,Interleukin-36 beta (IL36B): Change from GRMD Baseline (fraction),[1],0.0098 fraction
same,Killer cell immunoglobulin-like receptor 3DS1 (KIR3DS1): Change from GRMD Baseline (fraction),[1],0.1583 fraction
same,Killer cell lectin-like receptor subfamily F member 1 (KLRF1): Change from GRMD Baseline (fraction),[1],0.2014 fraction
same,Lamin-B1 (LMNB1): Change from GRMD Baseline (fraction),[1],-0.0238 fraction
same,Laminin (LAMA1 LAMB1 LAMC1): Change from GRMD Baseline (fraction),[1],0.0548 fraction
same,Low-density lipoprotein receptor-related protein 1B (LRP1B): Change from GRMD Baseline (fraction),[1],-0.0345 fraction
same,Macrophage-stimulating protein receptor (MST1R): Change from GRMD Baseline (fraction),[1],0.0197 fraction
same,Matrilin-3 (MATN3): Change from GRMD Baseline (fraction),[1],-0.0333 fraction
same,Matrilysin (MMP7): Change from GRMD Baseline (fraction),[1],-0.0041 fraction
same,N-terminal pro-BNP (NPPB): Change from GRMD Baseline (fraction),[1],-0.0202 fraction
same,NKG2D ligand 3 (ULBP3): Change from GRMD Baseline (fraction),[1],0.0123 fraction
same,Neural cell adhesion molecule L1-like protein (CHL1): Change from GRMD Baseline (fraction),[1],-0.0412 fraction
same,Neurexophilin-1 (NXPH1): Change from GRMD Baseline (fraction),[1],0.3842 fraction
same,OX-2 membrane glycoprotein (CD200): Change from GRMD Baseline (fraction),[1],0.1164 fraction
same,Persephin (PSPN): Change from GRMD Baseline (fraction),[1],-0.0043 fraction
same,"Phosphatidylinositol 4,5-bisphosphate 3-kinase catalytic subunit gamma isoform (PIK3CG): Change from GRMD Baseline (fraction)",[1],0.0292 fraction
same,Pituitary adenylate cyclase-activating polypeptide 27 (ADCYAP1): Change from GRMD Baseline (fraction),[1],0.0483 fraction
same,Platelet factor 4 (PF4): Change from GRMD Baseline (fraction),[1],0.0577 fraction
same,Platelet glycoprotein VI (GP6): Change from GRMD Baseline (fraction),[1],0.0535 fraction
same,Prolactin (PRL): Change from GRMD Baseline (fraction),[1],-0.0256 fraction
same,Prolactin receptor (PRLR): Change from GRMD Baseline (fraction),[1],0.085 fraction
same,Proteasome subunit alpha type-6 (PSMA6): Change from GRMD Baseline (fraction),[1],0.0724 fraction
same,Protein E7_HPV18 (Human-virus): Change from GRMD Baseline (fraction),[1],0.0128 fraction
same,Proto-oncogene tyrosine-protein kinase receptor Ret (RET): Change from GRMD Baseline (fraction),[1],0.0043 fraction
same,RNA-binding protein 39 (RBM39): Change from GRMD Baseline (fraction),[1],-0.1347 fraction
same,Ras GTPase-activating protein 1 (RASA1): Change from GRMD Baseline (fraction),[1],-0.0705 fraction
same,Ribosome maturation protein SBDS (SBDS): Change from GRMD Baseline (fraction),[1],0.0714 fraction
same,SPARC-related modular calcium-binding protein 1 (SMOC1): Change from GRMD Baseline (fraction),[1],-0.0726 fraction
same,Secreted and transmembrane protein 1 (SECTM1): Change from GRMD Baseline (fraction),[1],-0.1238 fraction
same,Serine/threonine-protein kinase PAK 3 (PAK3): Change from GRMD Baseline (fraction),[1],0.077 fraction
same,Serine/threonine-protein kinase PAK 7 (PAK7): Change from GRMD Baseline (fraction),[1],-0.0176 fraction
same,Serine/threonine-protein kinase pim-1 (PIM1): Change from GRMD Baseline (fraction),[1],0.0551 fraction
same,Serum amyloid A-1 protein (SAA1): Change from GRMD Baseline (fraction),[1],-0.1642 fraction
same,Sialic acid-binding Ig-like lectin 7 (SIGLEC7): Change from GRMD Baseline (fraction),[1],-0.0123 fraction
same,Small ubiquitin-related modifier 3 (SUMO3): Change from GRMD Baseline (fraction),[1],-0.0342 fraction
same,Stromelysin-1 (MMP3): Change from GRMD Baseline (fraction),[1],0.0381 fraction
same,Stromelysin-2 (MMP10): Change from GRMD Baseline (fraction),[1],-0.0469 fraction
same,Synaptosomal-associated protein 25 (SNAP25): Change from GRMD Baseline (fraction),[1],0.0227 fraction
same,T-cell surface glycoprotein CD4 (CD4): Change from GRMD Baseline (fraction),[1],0.004 fraction
same,T-lymphocyte activation antigen CD86 (CD86): Change from GRMD Baseline (fraction),[1],0.0642 fraction
same,TATA-box-binding protein (TBP): Change from GRMD Baseline (fraction),[1],-0.0819 fraction
same,Thyroxine-binding globulin (SERPINA7): Change from GRMD Baseline (fraction),[1],-0.0761 fraction
same,Transcription factor IIIB 90 kDa subunit (BRF1): Change from GRMD Baseline (fraction),[1],0.0702 fraction
same,Tumor necrosis factor ligand superfamily member 18 (TNFSF18): Change from GRMD Baseline (fraction),[1],0.0235 fraction
same,Tumor necrosis factor receptor superfamily member 13B (TNFRSF13B): Change from GRMD Baseline (fraction),[1],-0.0295 fraction
same,Tumor necrosis factor receptor superfamily member 13C (TNFRSF13C): Change from GRMD Baseline (fraction),[1],-0.0266 fraction
same,Tumor-associated calcium signal transducer 2 (TACSTD2): Change from GRMD Baseline (fraction),[1],-0.0008 fraction
same,Ubiquitin-conjugating enzyme E2 G2 (UBE2G2): Change from GRMD Baseline (fraction),[1],-0.0144 fraction
same,WNT1-inducible-signaling pathway protein 1 (WISP1): Change from GRMD Baseline (fraction),[1],0.0281 fraction
same,WNT1-inducible-signaling pathway protein 3 (WISP3): Change from GRMD Baseline (fraction),[1],0.0371 fraction
same,alpha-2-macroglobulin receptor-associated protein (LRPAP1): Change from GRMD Baseline (fraction),[1],-0.0289 fraction
same,"cGMP-dependent 3',5'-cyclic phosphodiesterase (PDE2A): Change from GRMD Baseline (fraction)",[1],0.1206 fraction
same,Change from GRMD Baseline (fraction),"Protein deglycase DJ-1 (PARK7), EDG-5506 treatment to GRMD baseline",0.1853 fraction
same,Change from GRMD Baseline (fraction),"Protein deglycase DJ-1 (PARK7), Post-Treatment to GRMD baseline",-0.0618 fraction
same,Change from GRMD Baseline (fraction),"Proto-oncogene vav (VAV1), EDG-5506 treatment to GRMD baseline",0.0609 fraction
same,Change from GRMD Baseline (fraction),"Proto-oncogene vav (VAV1), Post-Treatment to GRMD baseline",0.2228 fraction
same,Change from GRMD Baseline (fraction),"SH2 domain-containing protein 1A (SH2D1A), EDG-5506 treatment to GRMD baseline",0.0272 fraction
same,Change from GRMD Baseline (fraction),"SH2 domain-containing protein 1A (SH2D1A), Post-Treatment to GRMD baseline",0.0814 fraction
same,Change from GRMD Baseline (fraction),"Serine/threonine-protein kinase TBK1 (TBK1), EDG-5506 treatment to GRMD baseline",0.0144 fraction
same,Change from GRMD Baseline (fraction),"Serine/threonine-protein kinase TBK1 (TBK1), Post-Treatment to GRMD baseline",0.0415 fraction
same,Change from GRMD Baseline (fraction),"Sialic acid-binding Ig-like lectin 14 (SIGLEC14), EDG-5506 treatment to GRMD baseline",0.0643 fraction
same,Change from GRMD Baseline (fraction),"Sialic acid-binding Ig-like lectin 14 (SIGLEC14), Post-Treatment to GRMD baseline",-0.0249 fraction
same,Change from GRMD Baseline (fraction),"Sorting nexin-4 (SNX4), EDG-5506 treatment to GRMD baseline",-0.0709 fraction
same,Change from GRMD Baseline (fraction),"Sorting nexin-4 (SNX4), Post-Treatment to GRMD baseline",0.088 fraction
same,Change from GRMD Baseline (fraction),"Thrombin (F2), EDG-5506 treatment to GRMD baseline",0.2436 fraction
same,Change from GRMD Baseline (fraction),"Thrombin (F2), Post-Treatment to GRMD baseline",0.0387 fraction
same,Change from GRMD Baseline (fraction),"Transgelin-2 (TAGLN2), EDG-5506 treatment to GRMD baseline",0.1205 fraction
same,Change from GRMD Baseline (fraction),"Transgelin-2 (TAGLN2), Post-Treatment to GRMD baseline",-0.0633 fraction
same,Change from GRMD Baseline (fraction),"WAP, kazal, immunoglobulin, kunitz and NTR domain-containing protein 1 (WFIKKN1), EDG-5506 treatment to GRMD baseline",0.1609 fraction
same,Change from GRMD Baseline (fraction),"WAP, kazal, immunoglobulin, kunitz and NTR domain-containing protein 1 (WFIKKN1), Post-Treatment to GRMD baseline",-0.0946 fraction
